How the values were obtained:
BPV-1 = BPV-1 focus assay in C127 mouse cells; type: cell-based, bovine papillomavirus; settings: bovine papillomavirus
Description: Cell-free stocks of BPV-1 were prepared by extraction (10% w/v) of epidermal bovine warts in phosphate buffered saline (PBS). In order to detect the transforming ability of BPV-1, C127 mouse cells were seeded (3×10^5 cells per flask) into T-25^2 flasks. After 24 hr of growth, subconfluent cells were infected with BPV-1. For the positive controls, stock virus (20 μl) was diluted (1:1) with PBS, incubated at 37° C. for 10 min, diluted […] and then added (100 μl ) into the 5 ml of cell culture medium present on the cells. Cells were refed at 24 hours and subsequently 2 times weekly. The presence of morphologically transformed foci was counted after 2 weeks and then again at 3 weeks.
Virus inactivations were carried out in vitro by addition of concentrated SDS solutions to the virus stocks (20 μl of virus plus 20 μl of detergent) and subsequent incubation at 37° C. for 10 or 30 min as indicated. Following inactivation, virus was diluted 1000 fold to lower the detergent concentration and the preparations were immediately used for infection as above.
Although SDS could effectively reduce HSV-2 infectivity, it remained possible that this destruction was mediated by envelope removal. Because papillomaviruses are non-enveloped, the possibility remained that SDS would fail to inactivate these viruses. We utilized BPV-1 as a prototype PV because of its ability to rapidly (within 2 weeks) form multi-layered transformed foci in mouse fibroblasts in an in vitro assay. Table 3 describes results of two separate experiments in which stocks of BPV-1 were incubated at 37° C. with various concentrations of SDS (5% to 5×10^−4%) for either 10 or 30 minutes, diluted to lower the SDS concentration (to avoid cell toxicity) and then used to infect C127 cells. […] Table 4 lists several other commercially available detergents that were tested for possible inactivation of BPV-1. None of these detergents inactivated the morphologic transforming properties of the BPV-1.

[1] = tested on: HIV-1-infected SupT1 cells; experiment: Cell-associated HIV-1 infectivity (FIG. 6); type: cell-based, human immunodeficiency virus; settings: 10 min at 37° C., co-culture with HCLB cells, FIG. 6(a)
Description: (A) SupT1 T lymphocytes (8×10^4)infected 5 days prior with HIV-1 strain IIIB were pelleted and resuspended in new media to remove cell-free virus. After exposure to selected concentrations of each microbicide for 10 min at 37° C., the cells were diluted 1:10 and co-cultured with HCLB cells for 2 h. Following one wash with PBS to remove the infected lymphocytes, the indicator cells were cultured and assayed. Infectivity following exposure is expressed as a percentage relative to the number of β-gal-positive cells in duplicate wells infected with HIV-1 infected SupT1 cells incubated in the absence of a microbicidal compound. Results shown in FIG. 6(a) are the average cell counts for a total of four wells per concentration in two independent experiments. (B) SupT1 T lymphocytes (8×10^4) were incubated with selected concentrations of each microbicide for 10 min at 37° C., and then diluted 1:10 with new media. Following a 2 h incubation period, the cells were assessed for viability. Cell survival after treatment is expressed as the fraction of viable cells relative to the number of mock-exposed cells. Results shown in FIG. 6(b) are the average of two experiments in which triplicate wells for each concentration were assayed.

Bovine sperm = Bovine sperm motility following detergent addition; type: cell-based; design: key to Bovine Sperm Motility Following Detergent Addition: +++: Vigorous swimming; ++/−: Many swimmers/some dead; +/−: Occasional swimmer/most dead; −: All dead
Source text: The following data represent an in vitro experiment to test the efficacy of SDS and other detergents as spermicidal agents. Frozen samples of bull semen were obtained, thawed and placed in a test tube. Aliquots were taken out and put in a separate test tube where they were mixed with detergent (SDS, C31G, N-9 or a mixture of SDS and N-9) to a final percent as listed in Tables 8 and 9 below. After mixing, the samples were immediately placed on a microscope slide and visually examined for sperm movement. The experiment was conducted one sample at a time so that the visual examination was conducted immediately after addition of detergent to the sample. As a result, indications in the table of complete inactivation indicate virtually instantaneous inactivation of the sperm. […] Occasional swimmers means very few, on the order of approximately 1% of the population of sperm present in the sample, indicating approximately 99% of the sperm were inactivated by the detergent.

[2] = tested on: lymphocyte-, macrophage- and dual-tropic strains of HIV-1 (IIIB, BaL, 89.6); experiment: Cell-free HIV-1 inactivation (FIG. 5); type: cell-based, human immunodeficiency virus; settings: HCLB or P4-R5 indicator cells
Description: Cell-free HIV-1 strain IIIB (A) was treated with N-9, C31G, or SDS, and used to infect HCLB cells. Cell-free HIV-1 strains BaL (M tropic) (B) and 89.6 (dual tropic) (C) were treated with N-9, C31G or SDS,and used to infect P4-R5 cells. Assays were conducted. Infectivity following exposure is expressed as a percentage relative to the number of β-gal-positive cells in duplicate wells infected with virus incubated in the absence of a microbicidal compound. Results shown in FIG. 5 are the average cell counts for a total of four wells per concentration in two independent experiments.

CRPV = type: in vivo, cottontail rabbit papillomavirus; settings: 10^−2 dilution of CRPV stock, 0.05% N-9, 37° C. 10 min; 10 sites each, 3-6 weeks

Compound: CCCCCCCCCCCCOS(=O)(=O)[O-].[Li+] [LDS, lithium dodecyl sulfate]
- anti-papillomavirus activity in the C127 focus assay (BPV-1): have anti-papillomavirus activity

Compound: CCCCCCCCCCCC(=O)O [Lauric Acid, lauric acid]
- anti-papillomavirus activity in the C127 focus assay (BPV-1): have anti-papillomavirus activity

Compound: CCCCCCCCCCCC(=O)[O-].[Na+] [NA+ Lauric Acid, sodium salt of lauric acid]
- anti-papillomavirus activity in the C127 focus assay (BPV-1): have anti-papillomavirus activity

Compound: Nonoxynol-9 [N-9, reference compound]
- cell-associated infectivity of HIV-1-infected SupT1 cells [1]: can reduce the cell-associated infectivity
- Bovine Sperm Motility Following Detergent Addition (Bovine sperm; Table 8, 0.0125% detergent): +++
- Bovine Sperm Motility Following Detergent Addition (Bovine sperm; Table 8, 0.025% detergent): −
- Bovine Sperm Motility Following Detergent Addition (Bovine sperm; Table 8, 0.5% detergent): −
- Bovine Sperm Motility Following Detergent Addition (Bovine sperm; Table 8, 1% detergent): −
- Bovine Sperm Motility Following Detergent Addition (Bovine sperm; Table 8, 2% detergent): −
- Bovine Sperm Motility Following Detergent Addition (Bovine sperm; Table 9, 0.125% detergent): +++
- Bovine Sperm Motility Following Detergent Addition (Bovine sperm; Table 9, 0.25% detergent): +++
- Bovine Sperm Motility Following Detergent Addition (Bovine sperm; Table 9, 0.5% detergent): +++
- Bovine Sperm Motility Following Detergent Addition (Bovine sperm; Table 9, 1% detergent): ++/−
- Bovine Sperm Motility Following Detergent Addition (Bovine sperm; Table 9, 2% detergent): −
- inactivation of cell-free HIV-1 strains IIIB, BaL and 89.6 (infectivity, β-gal-positive cells) [2]: inactivated
- growth of papillomas (GMD) from treated versus normal CRPV (FIG. 2b) (CRPV): not a difference in the growth of the lesions

Reference: patent publication US6635242B2, “Broad spectrum microbicidal and spermicidal compositions, devices, and methods” (The Pennsylvania State University, priority 1998, dated 2003)
